Results on 27 compounds are retold here after patent publication US8791131B2, “Imidazo[1,5]naphthyridine compounds, their pharmaceutical use and compositions” (Pfizer Inc., priority 2008, dated 2014).

SMILES strings stand for the structures. pKi: −log10 of the molar value. Where two headings read alike, the source gives them in different places.

Broadly, the IC50 is the point on the concentration scale where inhibition reaches its midpoint. The pKi is the negative decadic logarithm of the Ki, by convention in mol/L.

One assay addresses PI3-Kα (Mus musculus (Mouse), UniProt P42337). As to the kind of experiment: PI3-Kα biochemical assay (in vitro kinase assay, fluorescence polarization).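 As to all read-outs here: Insect-cell-expressed mouse p110/p85 complex converting PI(4,5)P2, product PI(3,4,5)P3 detected by displacing TAMRA-tagged PI(3,4,5)P3 from Grip1 PH domain, lower polarization means more product, room temperature.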 The note with it: for PI3Ka Ki: Ki calculated from IC50, [ATP]=30 uM, Km=25 uM.
In assay [1] the test system is PI3-K (phosphorylation of AKT at serine 473) in BT20 cells. As to the kind of experiment: PI3-Kα cellular assay (phospho-AKT Ser473 ELISA in BT20 cells).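 Also: lysates read by ELISA with TMB colour at 450 nm, cells given 0.5% DMSO vehicle serve as positive control and cell-free wells as negative control, duplicate wells per concentration.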 Particulars: Homo sapiens, BT-20, 1 h. Background: An ELISA detects its analyte on a solid surface through an enzyme-linked reagent.
In a further assay the target is mTOR (Homo sapiens (Human), UniProt P42345).
Setting [2] is: read-out: S473 pAKT 0.5% FBS IC50 (μM).
[3] abbreviates: read-out: S473 pAKT 10% FBS IC50 (μM).

Chain of PI3-Kα (P42337 whole entry, the tested form may be a part): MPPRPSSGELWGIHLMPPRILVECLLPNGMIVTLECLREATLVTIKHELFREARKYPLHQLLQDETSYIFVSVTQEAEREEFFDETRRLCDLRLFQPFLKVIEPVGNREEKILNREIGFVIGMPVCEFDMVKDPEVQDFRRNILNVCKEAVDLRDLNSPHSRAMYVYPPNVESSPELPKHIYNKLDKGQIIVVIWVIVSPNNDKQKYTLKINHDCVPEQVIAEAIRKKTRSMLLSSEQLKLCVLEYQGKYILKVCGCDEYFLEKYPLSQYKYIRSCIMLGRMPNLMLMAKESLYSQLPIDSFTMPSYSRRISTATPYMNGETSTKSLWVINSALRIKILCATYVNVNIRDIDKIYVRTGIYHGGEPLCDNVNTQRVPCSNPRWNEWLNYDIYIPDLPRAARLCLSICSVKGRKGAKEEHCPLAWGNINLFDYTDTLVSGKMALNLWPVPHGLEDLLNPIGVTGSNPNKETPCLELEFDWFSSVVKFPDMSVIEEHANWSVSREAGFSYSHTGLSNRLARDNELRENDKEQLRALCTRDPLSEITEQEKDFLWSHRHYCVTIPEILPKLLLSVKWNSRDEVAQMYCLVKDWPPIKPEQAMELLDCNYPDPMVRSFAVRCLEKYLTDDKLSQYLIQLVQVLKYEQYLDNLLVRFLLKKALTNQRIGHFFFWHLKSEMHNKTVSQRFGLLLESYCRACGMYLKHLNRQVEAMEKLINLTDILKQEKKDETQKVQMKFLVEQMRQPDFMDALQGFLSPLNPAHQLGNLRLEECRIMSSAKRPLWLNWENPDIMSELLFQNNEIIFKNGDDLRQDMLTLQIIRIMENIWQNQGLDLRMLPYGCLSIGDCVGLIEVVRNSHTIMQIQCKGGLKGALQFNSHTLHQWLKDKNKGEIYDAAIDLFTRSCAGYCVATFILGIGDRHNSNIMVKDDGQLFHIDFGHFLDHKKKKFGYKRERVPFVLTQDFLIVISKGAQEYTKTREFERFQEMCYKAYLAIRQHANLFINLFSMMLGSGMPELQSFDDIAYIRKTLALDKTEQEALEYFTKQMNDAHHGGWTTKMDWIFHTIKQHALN
Chain of PI3-Kα (P26450 whole entry partner, the tested form may be a part): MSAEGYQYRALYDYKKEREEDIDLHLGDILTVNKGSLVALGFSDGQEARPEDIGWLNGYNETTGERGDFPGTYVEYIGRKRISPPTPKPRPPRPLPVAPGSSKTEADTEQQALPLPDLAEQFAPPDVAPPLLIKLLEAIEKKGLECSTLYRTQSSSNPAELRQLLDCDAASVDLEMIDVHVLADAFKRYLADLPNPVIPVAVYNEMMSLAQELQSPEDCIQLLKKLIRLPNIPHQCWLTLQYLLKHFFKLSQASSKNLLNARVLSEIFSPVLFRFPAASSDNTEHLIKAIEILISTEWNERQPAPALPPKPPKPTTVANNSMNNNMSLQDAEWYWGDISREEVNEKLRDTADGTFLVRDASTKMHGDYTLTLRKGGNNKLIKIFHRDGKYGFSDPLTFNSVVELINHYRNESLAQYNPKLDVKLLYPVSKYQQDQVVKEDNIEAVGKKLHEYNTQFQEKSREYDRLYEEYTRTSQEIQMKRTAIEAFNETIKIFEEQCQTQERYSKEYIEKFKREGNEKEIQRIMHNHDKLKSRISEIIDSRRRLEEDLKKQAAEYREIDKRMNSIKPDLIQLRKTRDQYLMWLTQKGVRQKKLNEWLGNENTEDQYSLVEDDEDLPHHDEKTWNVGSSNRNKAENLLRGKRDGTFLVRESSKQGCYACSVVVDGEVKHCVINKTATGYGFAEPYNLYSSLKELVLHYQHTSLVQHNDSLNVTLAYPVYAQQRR
Chain of mTOR (P42345 2156-2469): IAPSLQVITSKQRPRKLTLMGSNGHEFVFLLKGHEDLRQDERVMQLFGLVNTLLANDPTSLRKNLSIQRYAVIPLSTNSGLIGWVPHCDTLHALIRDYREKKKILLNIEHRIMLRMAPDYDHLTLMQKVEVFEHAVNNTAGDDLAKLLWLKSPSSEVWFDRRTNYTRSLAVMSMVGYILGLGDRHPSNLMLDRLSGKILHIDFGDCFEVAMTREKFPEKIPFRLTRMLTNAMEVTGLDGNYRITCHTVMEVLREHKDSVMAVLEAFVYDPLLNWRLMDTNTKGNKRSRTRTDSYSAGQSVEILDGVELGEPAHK

With `COc1ncc(-c2ccc3ncc4c(c3n2)n(-c2ccc(C(C)(C)C#N)cc2)c(=O)n4C)cn1` [Compound 112, 2-(4-(8-(2-methoxypyrimidin-5-yl)-3-methyl-2-oxo-2,3-dihydroimidazo[4,5-c][1,5]naphthyridin-1-yl)phenyl)-2-methylpropanenitrile], the “PI3Ka Ki” value on PI3-Kα is 6.09 nM. Further, the IC50 in assay [1] (setting [2]) was found to be 0.0272 µM. Turning to `CCNC(=O)N1CCC(n2c(=O)n(C)c3cnc4ccc(-c5cnc6ccccc6c5)nc4c32)CC1` [Compound 124, N-ethyl-4-(3-methyl-2-oxo-8-quinolin-3-yl-2,3-dihydro-1H-imidazo[4,5-c][1,5]naphthyridin-1-yl)piperidine-1-carboxamide], the IC50 in assay [1] (setting [2]) was found to be 0.017 µM. As for `Cn1cc(-c2ccc3ncc4c(c3n2)n(C2CCN(CC(F)(F)F)CC2)c(=O)n4C)cn1` [Compound 151, 3-methyl-8-(1-methyl-1H-pyrazol-4-yl)-1-[1-(2,2,2-trifluoroethyl)piperidin-4-yl]-1,3-dihydro-2H-imidazo[4,5-c][1,5]naphthyridin-2-one], the IC50 in assay [1] (setting [3]) was determined as 0.195 µM. Same read-out and setting: as for `COc1ncc(-c2ccc3ncc4c(c3n2)n([C@H]2CC[C@H](C(N)=O)CC2)c(=O)n4C)cn1` [Compound 157, trans-4-[8-(2-methoxypyrimidin-5-yl)-3-methyl-2-oxo-2,3-dihydro-1H-imidazo[4,5-c][1,5]naphthyridin-1-yl]cyclohexanecarboxamide], the figure is 0.0456 µM. Same read-out and setting: as for `Cn1cc(-c2ccc3ncc4c(c3n2)n([C@H]2CC[C@H](C(N)=O)CC2)c(=O)n4C)cn1` [Compound 158, trans-4-[3-methyl-8-(1-methyl-1H-pyrazol-4-yl)-2-oxo-2,3-dihydro-1H-imidazo[4,5-c][1,5]naphthyridin-1-yl]cyclohexanecarboxamide], the figure is 0.224 µM; as for `COCC(=O)N1CCC(n2c(=O)n(C)c3cnc4ccc(-c5cnc(OC)nc5)nc4c32)CC1` [Compound 161, 1-[1-(methoxyacetyl)piperidin-4-yl]-8-(2-methoxypyrimidin-5-yl)-3-methyl-1,3-dihydro-2H-imidazo[4,5-c][1,5]naphthyridin-2-one], 0.0123 µM. For the compound `COc1ncc(-c2ccc3ncc4c(c3n2)n([C@H]2CC[C@H](O)CC2)c(=O)n4C)cn1` [Compound 169, 1-(trans-4-hydroxycyclohexyl)-8-(2-methoxypyrimidin-5-yl)-3-methyl-1,3-dihydro-2H-imidazo[4,5-c][1,5]naphthyridin-2-one], on mTOR, the pKi was 8.19. The IC50 in assay [1] (setting [3]) worked out at 1 µM. Regarding `Cn1c(=O)n([C@H]2CC[C@H](O)CC2)c2c3nc(-c4cc[nH]n4)ccc3ncc21` [Compound 174, 1-(trans-4-hydroxycyclohexyl)-3-methyl-8-(1H-pyrazol-3-yl)-1,3-dihydro-2H-imidazo[4,5-c][1,5]naphthyridin-2-one], at PI3-Kα, the “PI3Ka Ki” value is 23.3 nM. Besides, in assay [1] (setting [3]), the IC50 is 0.264 µM.

As for `COc1ncc(-c2ccc3ncc4c(c3n2)n(C2CCN(C(=O)CN(C)C)CC2)c(=O)n4C)cn1` [Compound 183, 1-[1-(N,N-dimethylglycyl)piperidin-4-yl]-8-(2-methoxypyrimidin-5-yl)-3-methyl-1,3-dihydro-2H-imidazo[4,5-c][1,5]naphthyridin-2-one], the “PI3Ka Ki” value on PI3-Kα is 28.7 nM. Besides, the IC50 in assay [1] (setting [3]) was found to be 0.175 µM. For `Cn1c(=O)n(C2CCOCC2)c2c3nc(-c4ccn[nH]4)ccc3ncc21` [Compound 202, 3-methyl-8-(1H-pyrazol-5-yl)-1-(tetrahydro-2H-pyran-4-yl)-1,3-dihydro-2H-imidazo[4,5-c][1,5]naphthyridin-2-one], in that order: 28.3 nM and 0.309 µM. For `CN(C)c1ccc(-c2ccc3ncc4c(c3n2)n(C2CCN(C(=O)C(C)(C)O)CC2)c(=O)n4C)cn1` [Compound 209, 8-[6-(dimethylamino)pyridin-3-yl]-1-[1-(2-hydroxy-2-methylpropanoyl)piperidin-4-yl]-3-methyl-1,3-dihydro-2H-imidazo[4,5-c][1,5]naphthyridin-2-one], in that order: 0.264 nM and 0.00669 µM. Turning to `Cn1c(=O)n(C2CCOCC2)c2c3nc(-c4cnc(N)nc4)ccc3ncc21` [Compound 210, 8-(2-aminopyrimidin-5-yl)-3-methyl-1-(tetrahydro-2H-pyran-4-yl)-1,3-dihydro-2H-imidazo[4,5-c][1,5]naphthyridin-2-one], the IC50 in assay [1] (setting [3]) stood at 0.00694 µM.

As for `Cc1ccc(-c2ccc3ncc4c(c3n2)n(C2CCOCC2)c(=O)n4CCO)cn1` [Compound 218, 3-(2-hydroxyethyl)-8-(6-methylpyridin-3-yl)-1-(tetrahydro-2H-pyran-4-yl)-1,3-dihydro-2H-imidazo[4,5-c][1,5]naphthyridin-2-one], on PI3-Kα, the “PI3Ka Ki” value is 45.4 nM. Also, in assay [1] (setting [3]), the IC50 turned out to be 0.428 µM. In the case of `COc1ccc(-c2ccc3ncc4c(c3n2)n(C2CCOCC2)c(=O)n4CCO)cn1` [Compound 219, 3-(2-hydroxyethyl)-8-(6-methoxypyridin-3-yl)-1-(tetrahydro-2H-pyran-4-yl)-1,3-dihydro-2H-imidazo[4,5-c][1,5]naphthyridin-2-one], at PI3-Kα, the “PI3Ka Ki” value is 75.7 nM. On mTOR, this compound gave a pKi of 7.33. For `CN(C)c1ccc(-c2ccc3ncc4c(c3n2)n(C2CCOCC2)c(=O)n4CCO)cn1` [Compound 222, 8-[6-(dimethylamino)pyridin-3-yl]-3-(2-hydroxyethyl)-1-(tetrahydro-2H-pyran-4-yl)-1,3-dihydro-2H-imidazo[4,5-c][1,5]naphthyridin-2-one], in that order: 319 nM and 7.30.

On to `C[C@H](CO)n1c(=O)n(C)c2cnc3ccc(-c4cnn(C)c4)nc3c21` [Compound 232, 1-[(1R)-2-hydroxy-1-methylethyl]-3-methyl-8-(1-methyl-1H-pyrazol-4-yl)-1,3-dihydro-2H-imidazo[4,5-c][1,5]naphthyridin-2-one], for which the “PI3Ka Ki” value at PI3-Kα is 143 nM. The same compound gave a pKi at mTOR of 6.28. Consider `C[C@H](CO)n1c(=O)n(C)c2cnc3ccc(-c4cnc5ccccc5c4)nc3c21` [Compound 234, 1-[(1R)-2-hydroxy-1-methylethyl]-3-methyl-8-quinolin-3-yl-1,3-dihydro-2H-imidazo[4,5-c][1,5]naphthyridin-2-one], for which the “PI3Ka Ki” value at PI3-Kα was 57.3 nM. For the compound `Cn1c(=O)n([C@H]2CC[C@H](O)CC2)c2c3nc(-c4cccc5[nH]ccc45)ccc3ncc21` [Compound 236, 1-(trans-4-hydroxycyclohexyl)-8-(1H-indo1-4-yl)-3-methyl-1,3-dihydro-2H-imidazo[4,5-c][1,5]naphthyridin-2-one], the IC50 in assay [1] (setting [3]) was 0.00961 µM. As to `CNC(=O)Nc1ccc(-c2ccc3ncc4c(c3n2)n(C2CCN(C(=O)[C@H](C)O)CC2)c(=O)n4C)cc1` [Compound 244, 1-[4-(1-{1-[(2S)-2-hydroxypropanoyl]piperidin-4-yl}-3-methyl-2-oxo-2,3-dihydro-1H-imidazo[4,5-c][1,5]naphthyridin-8-yl)phenyl]-3-methylurea], the “PI3Ka Ki” value on PI3-Kα is 1.94 nM. Also, in assay [1] (setting [3]), the IC50 stood at 0.0815 µM.

Consider `CNC(=O)Nc1ccc(-c2ccc3ncc4c(c3n2)n(C2CCN(C(=O)CO)CC2)c(=O)n4C)cc1` [Compound 245, 1-{4-[1-(1-glycoloylpiperidin-4-yl)-3-methyl-2-oxo-2,3-dihydro-1H-imidazo[4,5-c][1,5]naphthyridin-8-yl]phenyl}-3-methylurea], for which the “PI3Ka Ki” value at PI3-Kα is 2.19 nM. Besides, the pKi on mTOR was 8.69. Regarding `CC(=O)N1CCC(n2c(=O)n(C)c3cnc4ccc(-c5cccc(-n6cccn6)c5)nc4c32)CC1` [Compound 247, 1-(1-acetylpiperidin-4-yl)-3-methyl-8-[3-(1H-pyrazol-1-yl)phenyl]-1,3-dihydro-2H-imidazo[4,5-c][1,5]naphthyridin-2-one], on PI3-Kα, the “PI3Ka Ki” value is 17.6 nM. Turning to `Cn1c(=O)n(C2CCN(C(=O)CO)CC2)c2c3nc(-c4ccnc5[nH]ncc45)ccc3ncc21` [Compound 252, 1-(1-glycoloylpiperidin-4-yl)-3-methyl-8-(1H-pyrazolo[3,4-b]pyridin-4-yl)-1,3-dihydro-2H-imidazo[4,5-c][1,5]naphthyridin-2-one], the “PI3Ka Ki” value on PI3-Kα was 0.832 nM. Moreover, the pKi on mTOR is 8.75. As to `Cn1c(=O)n([C@H]2CC[C@H](O)CC2)c2c3nc(-c4cnc5[nH]ncc5c4)ccc3ncc21` [Compound 268, 1-(trans-4-hydroxycyclohexyl)-3-methyl-8-(1H-pyrazolo[3,4-b]pyridin-5-yl)-1,3-dihydro-2H-imidazo[4,5-c][1,5]naphthyridin-2-one], at PI3-Kα, the “PI3Ka Ki” value is 0.366 nM. Moreover, the IC50 in assay [1] (setting [3]) was 0.0133 µM. For `COc1ccc(-c2ccc3ncc4c(c3n2)n(CCN2CCOCC2)c(=O)n4C)cn1` [Compound 269, 8-(6-methoxypyridin-3-yl)-3-methyl-1-(2-morpholin-4-ylethyl)-1,3-dihydro-2H-imidazo[4,5-c][1,5]naphthyridin-2-one], the “PI3Ka Ki” value at PI3-Kα was 12.2 nM. Also, on mTOR, the pKi is 7.56. As to `COc1ccc(-c2ccc3ncc4c(c3n2)n(C2CCN(C(=O)[C@H](C)O)CC2)c(=O)n4C)cc1` [Compound 272, 1-{1-[(2S)-2-hydroxypropanoyl]piperidin-4-yl}-8-(4-methoxyphenyl)-3-methyl-1,3-dihydro-2H-imidazo[4,5-c][1,5]naphthyridin-2-one], the “PI3Ka Ki” value at PI3-Kα was 1.84 nM. In addition, in assay [1] (setting [3]), the IC50 is 0.014 µM.

In the case of `COc1ccccc1-c1ccc2ncc3c(c2n1)n(C1CCN(C(=O)CO)CC1)c(=O)n3C` [Compound 279, 1-(1-glycoloylpiperidin-4-yl)-8-(2-methoxyphenyl)-3-methyl-1,3-dihydro 2H-imidazo[4,5-c][1,5]naphthyridin-2-one], the “PI3Ka Ki” value at PI3-Kα is 118 nM. Take `COc1ccccc1-c1ccc2ncc3c(c2n1)n(C1CCN(C(C)=O)CC1)c(=O)n3C` [Compound 280, 1-(1-acetylpiperidin-4-yl)-8-(2-methoxyphenyl)-3-methyl-1,3-dihydro-2H-imidazo[4,5-c][1,5]naphthyridin-2-one]: the negative-log Ki (pKi) on PI3-Kα (read-out: PI3Ka Ki) was 6.53.
